# Results reported in patent US11020383B2, “Methods for the treatment of cancer metastasis” (THE BOARD OF REGENTS OF THE UNIVERSITY OF TEXAS SYSTEM, priority 2017, dated 2021).
# “Also recorded” adds a separate entry of the source.
# Columns and labels:
# [1] = tested on: human prostate cancer androgen resistant C4-2 cells; test: Growth of primary tumor in nude mice xenografted with C4-2 cells; type: in vivo
# Source text: In the vehicle-treated mouse, the tumor grew by size more than twice in the span of four weeks, whereas in the B1-treated mouse the tumor shrunk to about 50% of the size at the start of treatment (FIG. 2).
# As shown herein, B1 exerts anti-metastatic actions with multiple mechanisms. First, the drug attenuates the growth of the primary tumor. Large tumors shed large number of metastasis seeding circulating tumor cells into circulation, thus increasing the chance of successful colonization of metastatic sites.
# (§1) Importantly, in the second, third and fourth mechanisms, the drug acts independently from the size of primary tumor. This was an unexpected effect.
# [2] = tested on: circulating tumor cells (CTCs); test: Enumeration of circulating tumor cells in blood of xenografted mice; type: in vivo, nude mice
# Method: (§2) CTCs and macrophages were isolated from the blood of two nude mice xenografted with human prostate cancer androgen resistant C4-2 cells and treated biweekly intratumorally with vehicle or B1 (30 mg/kg). In the vehicle-treated mouse, the tumor grew by size more than twice in the span of four weeks, whereas in the B1-treated mouse the tumor shrunk to about 50% of the size at the start of treatment (FIG. 2).
# The anti-tumor actions of B1 in nude mice were confirmed by analysis of circulating tumor cells (CTCs). Enumeration of CTCs is used as a prognostic marker in cancer patients. The enumeration was extended to include not only canonical CTCs positive for epithelial marker EpCAM, but also EpCAM negative CTC-like cells positive for markers of epithelial-mesenchymal transition (EMT), indicative of increased aggressiveness of the cells (Chen et al., 2013).
# M1 and M2 macrophages = test: Enumeration of circulating M1 and M2 macrophages in blood of xenografted mice; type: in vivo, nude mice
# Method: as §2
# However, the numbers of circulating macrophages were also much lower in the blood of the B1-treated mouse. […] Consistently, the ratios of pro-tumor and anti-tumor macrophages in control and B1-treated mouse were approximated as 2.5 and 0.5, respectively.
# Third, the drug boosts natural anti-cancer immune response. It promotes anti-metastatic profile of macrophages co-purifying with CTCs in the nude mice xenografted with human cultured androgen-independent prostate cancer cells C4-2, and treated with vehicle or with B1 (30 mg/kg). […] Data from one control and one treated mouse are presented in FIG. 5, with data from seven control and six treated mice presented below.
# [3] = tested on: circulating tumor cells (CTCs); test: Biophysical profiling of CTCs by atomic force microscopy (PF QNM AFM); type: in vivo, nude mice; details: CTCs from blood of B1-treated vs control mice
# Source text: It was postulated that the differences in profiles of circulating macrophages, which may destroy CTCs or help them in seeding metastases, are indicative of the metastatic potential of CTCs. To determine the metastatic potential of CTCs isolated from the blood of human prostate cancer patients and mouse cancer models, biophysical profiling by atomic force microscopy (AFM) was employed. This method was used to confirm the decreased aggressiveness of CTCs isolated from the B1-treated mouse.
# In short, to determine the mechanical phenotype of cells Peak Force Quantitative Nanomechanical Atomic Force Microscopy (PF QNM AFM) imaging was employed. AFM is a type of stylus profilometry. In this particular AFM technique, a micro-sized probe (tip) interacts with a cell surface with strictly controlled force. At each point of contact, the tip position and the “force plot” presenting mechanical interactions of the tip with a cell surface are recorded. Images are created during raster scanning by the tip. The parameters extracted from the force plots are assembled into topographical (cell morphology) and mechanical maps. The mechanical parameters include elasticity (i.e., pressure needed to indent the cell in a reversible manner), deformation (i.e., the depth of maximal indentation enforced by the probe without breaking the cell membrane), and adhesion (i.e., force needed to lift the tip from the cell surface during the probe withdrawal).
# A single AFM scan also provides a shape of the cell to distinguish between epithelial-like and mesenchymal-like phenotypes, and roughness of the cell surface that correlates with activity of apoptotic and EMT pathways (Chen et al, 2013; Osmulski et al., 2014). The integrated inverted fluorescent microscope allows collecting correlative immunocytochemical data about the scanned cells (FIG. 7).
# The probe (tip on a cantilever) indents (vertical movement) and scans (lateral movement) the cell surface. After 10-15 min scan of a 1000-2000 μm^2 area, 5 maps of cell morphology, surface topography, elasticity, deformation, and adhesion (FIG. 6) are computed from the force plots (FIG. 7) created for each of the 4000-65,500 single tip-cell contact points with horizontal resolution of 100 nm, vertical resolution of 10 nm and forces as low as 100 pN. It is established that cancerous cell are much softer, deformable and more adhesive than their normal counterparts (Osmulski et al., 2014).
# Second, the drug decreases aggressiveness of CTCs. The decrease is apparent by comparison of mechanical phenotypes of CTCs isolated from mice xenografted with human cultured androgen-independent prostate cancer cells C4-2, and treated with vehicle or with B1 (30 mg/kg). The data are presented in FIGS. 11-16 and in Table 1 (FIG. 11 is an extended version of FIG. 8).
# [4] = B1 maximum tolerated dose study; type: in vivo
# Method: A study to determine the maximum tolerated dose was performed on 30 female CB. 17 SCID mice divided into six groups, five animals each. B1 was administered intravenously (i.v.) once a day (q.d.; three groups) or biweekly (three groups), at concentrations of 3 mg/kg, 10 mg/kg or 30 mg/kg, dissolved in 5% ethanol, 5% cremophor in water with 5% dextrose [D5W]. Mice were treated for 28 days, weighted daily on days 1-5 and then on a twice weekly schedule until day 28. They were observed frequently for adverse effects of treatment. […] Thus, B1 is non-toxic for mice even at the highest tested dose, 30 mg/kg.
# [5] = PD/PK study in mice xenografted with RPMI 8226 cells; type: in vivo, SCID mice; details: single 30 mg/kg i.v.
# Method: The study involved 11 female SCID mice, with 3 control mice injected with vehicle (5% ethanol, 5% cremophor in water with 5% dextrose [D5W]) and […] injected with B1. The presence of B1 was detected by mass spectrometry in the tumors of B1-injected mice 8 and 12 hours post-injection, at concentrations up to 30.5 ng/g.
# [6] = tested on: M1-polarized macrophages from U937 cells; test: Live cell counts of U937-derived M1-type model macrophages; type: cell-based, Human; details: 1 μM B1, n=4
# Method: (§3) FIGS. 17A-B: Model M2-polarized macrophages are sensitive to the treatment with B1, in contrast to model M1-polarized macrophages. (FIG. 17A) Human cultured monocytic U937 cells were in vitro differentiated into M0 macrophages and then polarized into M1-type and M2-type macrophages, in the presence of vehicle (DMSO; control) or in the presence of 1 μM B1. The inventors used established protocol to differentiate U937 cells into macrophages (M0) with PMA (phorbol myristate acetate) and then polarize them into model M1 and M2-like types with interferon γ and LPS (lipopolysaccharide) or interleukins IL-4 and IL-13, respectively. The identity of M1-type and M2-type model macrophages was confirmed by cell staining with specific markers: the fluorescent antibodies recognizing surface proteins CD80 (for M1) and CD163 (for M2). (FIG. 17B) Counts of live cells cultured in the presence or absence of B1 are presented.
# (§4) And fourth, the anti-M2 macrophages actions were confirmed in cell culture model.
# [7] = tested on: M2-polarized macrophages from U937 cells; test: Live cell counts of U937-derived M2-type model macrophages; type: cell-based, Human; details: 1 μM B1, T test, n=4
# Method: as §3, §4
# [8] = tested on: human cultured androgen-independent prostate cancer cells C4-2; test: Efficacy study in NOD-SCID mice xenografted with C4-2 cells; type: in vivo
# Method: FIG. 18. […] The efficacy study was performed with mice xenografted with human cultured androgen-independent prostate cancer cells C4-2. The study involved eleven NOD-SCID mice. […] tumor-growing mice were treated intra-tumorally (IT) with 30 mg/kg B1 twice a week for up to three weeks. The control group (four mice) received a B1 vehicle (dimethylsulfoxide; DMSO). Tumor sizes were measured twice a week.
# [9] = tested on: human C4-2 prostate cancer cells; test: Liver micrometastasis by H&E histology in C4-2 tumor-bearing nude mice; type: in vivo
# Source text: FIG. 10: H&E stained histological liver slices of control nude mice with a tumor induced using human C4-2 prostate cancer cells. Suspected micrometastasis sites are marked with black rings. A scale bar represents 500 μm. Micrometastasis was detected with an average frequency in the control group (untreated) 3.75 per mice, whereas in the B1 treated group it was 1.33 per mice.
# as §1
# proteasome = details: cited from earlier work
# mTOR pathway = details: cited from earlier work
# [10] = tested on: cultured breast cancer cells; details: breast cancer cells poorly responsive to bortezomib; cited from earlier work
# [11] = B1 treated vs control mice (FIG. 16)
# [12] = mice with xenografted prostate tumors
# [13] = one B1-treated vs one vehicle mouse (FIG. 5)
# [14] = seven control and six treated nude mice, B1 30 mg/kg
structure (smiles),measurement,setting,value
"COc1cc(CCCOC(=O)C2CCCCN2C(=O)C(=O)C2CCCCC2)cc(OC)c1OC (stereo not drawn) [Compound B1, 3-(3,4,5-trimethoxyphenyl)propyl 1-(2-cyclohexyl-2-oxoacetyl) piperidine-2-carboxylate]",tumor size relative to the size at the start of treatment,"[1]; one nude mouse, C4-2 xenograft, B1 30 mg/kg intratumorally biweekly, four weeks (FIG. 2)",about 50%
same,difference in tumor volume increase between control and B1-treated tumors,[1]; selected group of seven control and six B1-treated mice,no significant difference
same,number of highly invasive post-EMT CTCs,[2]; [11],diminished
same,formation of CTCs clusters,"[2]; B1 treated vs control mice, heat map cluster analysis (FIG. 16)",diminished formation
same,decrease of abundance of cancer cells in the blood stream vs vehicle,[2]; [12],about five-fold
same,numbers of CTCs in blood vs vehicle-treated mouse,"[2]; one B1-treated vs one vehicle mouse, 30 mg/kg intratumorally, EpCAM or vimentin (FIG. 4)",significantly lower
same,ratio of pro-tumor (M2) and anti-tumor (M1) macrophages,"M1 and M2 macrophages; B1-treated mouse, blood (control mouse 2.5)",~0.5
same,formation of CTC-M2 (chaperoning) clusters,M1 and M2 macrophages; [11],limited formation
same,formation of M1-CTC (predatory) clusters,M1 and M2 macrophages; [11],enhanced formation
same,decrease of chaperone immune cells (M2 macrophages) vs vehicle,M1 and M2 macrophages; [12],about four-fold
same,decrease of the ratio of M2 macrophages to M1 macrophages vs vehicle-treated mouse,M1 and M2 macrophages; [12],five-fold
same,"M2 pro-tumor macrophages, control mouse relative to B1-treated mouse",M1 and M2 macrophages; [13],more than four-times
same,number of M1 predator (anti-tumor) macrophages vs control mouse,M1 and M2 macrophages; [13],very similar
same,numbers of circulating macrophages vs vehicle-treated mouse,"M1 and M2 macrophages; one B1-treated vs one vehicle mouse, 30 mg/kg intratumorally",much lower
same,number of anti-cancer M1-type macrophages vs control,M1 and M2 macrophages; [14],larger number
same,number of pro-cancer M2-type macrophages vs control,M1 and M2 macrophages; [14],generally lower number
same,CTC adhesion vs vehicle,"[3]; AFM (FIG. 8, FIG. 11)",less adhesive
same,CTC deformation vs vehicle,"[3]; AFM (FIG. 8, FIG. 11)",less deformable
same,"CTC stiffness (elasticity, Young modulus) vs vehicle","[3]; AFM (FIG. 8, FIG. 11)",harder; also recorded: stiffer
same,aggressiveness of CTCs,[3]; mechanical phenotype,low aggressiveness; also recorded: significantly lowered aggressiveness
same,toxicity at the highest tested dose,"[4]; 30 mg/kg i.v., mice",non-toxic
same,adverse effects on behavior,"[4]; i.v. q.d. or biweekly, 3, 10 or 30 mg/kg, 28 days",no adverse effects
same,differences in body weight between the groups,"[4]; i.v. q.d. or biweekly, 3, 10 or 30 mg/kg, 28 days (FIG. 9)",No statistically significant differences
same,concentration of B1 in the tumors,"[5]; 8 and 12 hours post-injection, mass spectrometry",up to 30.5 ng/g
same,tissue localization,[5]; RPMI 8226 xenograft,localized to the xenografted tumor site
same,counts of live M1 model macrophages vs control,[6],did not affect viability; also recorded: did not differ
same,counts of live M2-type model macrophages vs control,[7],significantly attenuating viability; also recorded: the difference was statistically significant
same,changes in the weight of animals,[8]; 30 mg/kg B1 intra-tumorally twice a week,did not result in detectable changes
same,tumor growth vs control group,[8]; 30 mg/kg B1 intra-tumorally twice a week for up to three weeks (FIG. 18),Significant inhibition; also recorded: significantly attenuated
same,incidence of micrometastases in livers vs controls,[9]; B1-treated mice (FIG. 10),decreased incidence
same,average frequency of liver micrometastasis,[9]; B1 treated group (untreated control 3.75),1.33 per mice
same,26S assembling,proteasome,interferes with 26S assembling
same,affinity of core particle toward bortezomib,proteasome,increases affinity
same,concentration at which proteasome activities are influenced,proteasome,nanomolar concentrations
same,effect on mTOR pathway,mTOR pathway,not affecting
same,cytotoxic effects with bortezomib,[10],strong cytotoxic effects
